Data from PMC10147936, “Dietary factors potentially impacting thiaminase I-mediated thiamine deficiency” (Scientific Reports, 2023).
pIC50: −log10 of the molar value.

Biological target: T1, thiaminase I from C. botulinum (BcmE) (Clostridium botulinum, UniProt A5HZW3)
T1 construct: gene CBO0770
Experiment: biochemical

T1 sequence (A5HZW3 1-404): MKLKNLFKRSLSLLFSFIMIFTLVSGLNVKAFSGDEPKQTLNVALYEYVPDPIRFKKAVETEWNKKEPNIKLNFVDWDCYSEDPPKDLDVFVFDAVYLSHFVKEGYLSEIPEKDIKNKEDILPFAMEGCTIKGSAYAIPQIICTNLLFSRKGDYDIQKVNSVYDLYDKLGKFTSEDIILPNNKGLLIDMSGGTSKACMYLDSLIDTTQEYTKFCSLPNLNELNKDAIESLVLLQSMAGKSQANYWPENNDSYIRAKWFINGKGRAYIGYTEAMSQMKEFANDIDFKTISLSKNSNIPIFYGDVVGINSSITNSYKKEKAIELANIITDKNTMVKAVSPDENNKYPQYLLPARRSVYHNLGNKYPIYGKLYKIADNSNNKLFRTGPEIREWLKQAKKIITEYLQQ

**Q.** How did the pIC50 turn out when O=C1O[C@H]([C@@H](O)CO)C(O)=C1O [ascorbic acid] was run?
**A.** 6.58
